Experimental findings from publication PMC11874007, “Switching Roles—Exploring Concentration-Dependent Agonistic versus Antagonistic Behavior of Integrin Ligands” (Journal of Medicinal Chemistry, 2025) are described below.

Read-outs that look alike come from different tables or passages of the source. Non-standard residues stand in square brackets, D forms with d. Chg = N[C@H](C(=O)O)C1CCCCC1; NMeV = CN[C@H](C(=O)O)C(C)C A value given as a limit tells only on which side of the number the result lay.

Assay [1] concerns the target T1, human αvβ3-integrin (Homo sapiens, UniProt P05106+P06756).
T1 construct: purchased R&D 3050-AV-050
Description: ELISA-type solid-phase binding assay: soluble αvβ3 competing for immobilized vitronectin. The following applies: competitive ELISA-type assay, referenced to internal standard cilengitide (L2). (In general: ELISA stands for enzyme-linked immunosorbent assay.)

Assay [2] addresses T2, human αvβ6-integrin (Homo sapiens, UniProt P06756+P18564).
T2 construct: purchased R&D 3817-AV-050
Kind of assay: ELISA-type solid-phase binding assay: soluble αvβ6 competing for immobilized LAP (TGF-β). Particulars: competitive ELISA-type assay, referenced to internal standard RTDLDSLRT

Assay [3] relates to αvβ6- OV-MZ-6 cells. Kind of assay: Cellular uptake of Cy5.5-labeled ligands, OV-MZ-6 control cells. Format: cell-based. Particulars: 1 μM Cy5.5-labeled ligand. The method, then: (§1) For intracellular drug delivery, integrin ligands designed as drug-conjugated vehicles have to be easily and selectively internalized by tumor cells (over)expressing the respective targeted integrin subtype. […] It should be noted here that HN, OV-MZ-6, and RKO cells also express low αvβ3 expression levels.
(§2) Microchamber cell culture slides were coated with fibronectin (2 μg/mL), followed by cell seeding at a density of 50,000 cells/well. After 24 h of cultivation, cells were treated with integrin ligands L1-Cy5.5 to L5-Cy5.5 (1 μM in 0.01% (w/v) CaCl2 and 0.1% (w/v) BSA in PBS; 250 μL/well) for 3, 30, 60, or 300 min at 37 °C. The cells were washed in PBS/0.01% (w/v) CaCl2 (6 × 800 μL) and the fluorescence signal intensity recorded using the LSM 700 microscope (Zeiss, Jena, Germany). CellMask Green Plasma Membrane Stain was used to stain the cell membrane; nuclei were stained with Hoechst 33342.

Assay [4] has as its target T3, human α5β1-integrin (Homo sapiens, UniProt P05556+P08648).
T3 construct: purchased R&D 3230-A5-050
Kind of assay: ELISA-type solid-phase binding assay: soluble α5β1 competing for immobilized fibronectin. The method, then: Prior to the biological evaluation of the ligands, their specificity and subtype-selective affinity was analyzed by an ELISA (enzyme-linked immune sorbent assay)-type solid-phase ligand binding assay[59] by measuring the competitive binding of soluble purified integrins in the presence of the respective ligands to plate-immobilized purified ECM proteins, as described in Experimental Section: vitronectin (for αvβ3-directed ligands), fibronectin (for α5β1-directed ligands), or the latency-associated peptide (LAP) of transforming growth factor-β (TGF-β) (for αvβ6-directed ligands). Then, we determined whether Cy5.5 conjugation of ligands led to altered ligand binding affinities and integrin subtype selectivity compared to the unlabeled compounds. In the following, we describe in detail the alterations detected.
(3) 2.0 μg/mL mouse-anti-human CD51/61 (BD Biosciences, Franklin Lakes, New Jersey, USA; #555504). (4) 2.0 μg/mL anti-mouse IgG-POD (Sigma-Aldrich, #A9044-2ML). Integrin αvβ6: (1) 0.4 μg/mL LAP (TGF-β) (R&D, #246-LP-025), (2) 0.5 μg/mL human αvβ6 (R&D, #3817-AV-050), (3) 1:500 dilution mouse-anti-human αv (MAB1978) (Merck Millipore, #MAB1978), (4) 2.0 μg/mL anti-mouse IgG-POD (Sigma-Aldrich, #A9044-2ML). Integrin α5β1: (1) 0.5 μg/mL human fibronectin (Sigma-Aldrich, #F0895-1MG), (2) 2.0 μg/mL human α5β1 (R&D, 3230-A5-050), (3) 1.0 μg/mL mouse-anti-human CD49e (BD Biosciences, #555651), (4) 2.0 μg/mL anti-mouse IgG-POD (Sigma-Aldrich, #A9044-2 ML). For Western blot analysis, the following antibodies were used: (p-)p44/42^(erk-1/2) (1) 1:300 dilution of rabbit-anti-human p44/42^(erk-1/2) antibody (Cell Signaling Technology, Frankfurt, Germany, #9102) in 3% (w/v) bovine serum albumin (BSA)/TBS-T, (2) 1:5,000 dilution goat-anti-rabbit horseradish-conjugated secondary antibody in 1% (w/v) BSA/TBS-T. Phospho-p44/42^(erk-1/2): (1) 1:200 dilution rabbit-anti-human p44/42^(erk-1/2) (Thr202/Tyr204) antibody (Cell Signaling Technology, #9101) in 3% (w/v) BSA/TBS-T, (2) 1:5,000 dilution goat-anti-rabbit horseradish-conjugated secondary antibody in 1% (w/v) BSA/TBS-T. FAK: (1) 1:300 dilution mouse-anti-human FAK antibody (Cell Signaling Technology, #9102) in 3% (w/v) BSA/TBS-T, (2) 1:5,000 dilution goat-anti-mouse horseradish-conjugated secondary antibody in 1% (w/v) BSA/TBS-T. Phospho-FAK: (1) 1:300 dilution mouse-anti-human p-FAK antibody (Cell Signaling Technology) in 3% (w/v) BSA/TBS-T, (2) 1:5,000 dilution goat-antimouse horseradish-conjugated secondary antibody in 1% (w/v) BSA/TBS-T. Differences in blotting efficiency and protein loading were normalized by using a primary antibody against glyceraldehyde-3-phosphate dehydrogenase (GAPDH, 1:10,000 dilution in 1% (w/v) BSA/TBS-T, at RT for 45 min (Millipore, Schwalbach, Germany) and a secondary horseradish-conjugated goat-anti-mouse antibody (1:10,000 dilution in 1% (w/v) BSA/TBS-T, 40 min at RT).
The integrin binding assay was done to assess the specificity and subtype-selective affinity of L1–L5 and their respective Cy5.5-conjugated ligands by using isolated and purified integrins in cell-free ligand binding assays, as previously published.[59]Table 2 summarizes the used ECM ligands, integrins, and antibodies. In brief, flat-bottom 96-well plates were coated overnight at 4 °C with the natural ECM integrin ligands, vitronectin (for αvβ3-directed ligands), fibronectin (for α5β1-directed ligands), or LAP of TGF-β1 (for αvβ6-directed ligands) (100 μL/well in buffer containing 15 mM Na2CO3, 35 mM NaHCO3, pH 9.6). Subsequently, each well was washed in PBS, 0.01% (v/v) Tween 20, 137 mM NaCl, 2.7 mM KCl, 10 mM Na2HPO4, 2 mM KH2PO4, pH 7.4 (PBS-T), and blocked for unspecific binding events for 1 h at RT in 20 mM Tris–HCl, pH 7.5, 150 mM NaCl, 1 mM CaCl2, 1 mM MgCl2, 1 mM MnCl2, and 1% (w/v) BSA. Meanwhile, dilution series of the different integrin ligands and the internal standards were prepared, ranging from 20 μM to 256 pM in 1:5 dilution steps. […]

Assay [5] relates to HN cells (αvβ6+). Description: Time-dependent cellular uptake of Cy5.5-labeled ligands, HN cells. The format is cell-based. Particulars: 1 μM, within 3 min.
Text: as §1
(§3) Figure 7 Cellular uptake of Cy5.5-labeled integrin ligands. […] Nuclei were costained with Hoechst 33342 (blue signal) and cell membranes with CellMask Green (green signal). Merge of stains (yellow signal) indicated colocalization of ligands at the cell membrane. Scale bar: 50 μm.
as §2

For assay [6], the target named is human α5β1-integrin (human) (UniProt P08648). Kind of assay: ELISA; competitive ELISA-type solid-phase assay: human fibronectin (0.5 μg/mL) coated on the plate overnight at 4 °C, soluble human α5β1 (2.0 μg/mL) added with a dilution series of the ligand (20 μM to 256 pM), 1 h at RT; blocked in 20 mM Tris-HCl pH 7.5, 150 mM NaCl, 1 mM CaCl2, 1 mM MgCl2, 1 mM MnCl2, 1% BSA; bound integrin detected with anti-CD49e; IC50 referenced to cilengitide.

Assay [7] has as its system M21 (αvβ3+), HN (αvβ6+), RKO (α5β1+) cells. Description: Time-dependent cellular uptake of Cy5.5-labeled ligands in cells overexpressing the targeted integrin. The format is cell-based. Particulars: state within 30 min, Cy5.5-conjugated ligands, target integrin-expressing cells.
Text: as §1, §3, §2

For assay [8], the target named is human α5β1-integrin (human) (UniProt P08648).
Assay [9] concerns the target T4, human αvβ6-integrin (human, UniProt P06756 31-1048; P18564 22-709).
T4 construct: integrin alpha-V, human, chain of the soluble purified αvβ6 heterodimer; integrin beta-6, human, chain of the soluble purified αvβ6 heterodimer; also called integrin αvβ6; source: bought: R&D, #3817-AV-050
Description: ELISA; competitive ELISA-type solid-phase assay: LAP of TGF-β1 (0.4 μg/mL) coated on the plate overnight at 4 °C, soluble human αvβ6 (0.5 μg/mL) added with a dilution series of the ligand (20 μM to 256 pM), 1 h at RT; blocked in 20 mM Tris-HCl pH 7.5, 150 mM NaCl, 1 mM CaCl2, 1 mM MgCl2, 1 mM MnCl2, 1% BSA; bound integrin detected with anti-αv; IC50 referenced to …. Particulars: both partners purified.

Where [10] appears, read: competitive ELISA-type assay, referenced to internal standard cilengitide (L2).

Usually IC50 stands for the concentration needed to halve the response being measured. Higher therefore signals lower potency. Regarding `COc1ccnc(NCCCOc2ccc(C[C@@H](CC(=O)O)NC(=O)c3ccc(OCCCNC(=O)CCCCCNC(=O)CCCCC[N+]4=C(/C=C/C=C/C=C5/N(C)c6ccc7ccccc7c6C5(C)C)C(C)(C)c5c4ccc4ccccc54)cc3)cc2)c1` [L1-Cy5.5], the IC50 was 1.02 ± 0.02 nM in assay [1], greater than 1000 nM in assay [2] and greater than 1000 nM in [4] (setting [10]). For the same molecule, in assay [3], the “Binding / intracellular uptake in control cells” value (“Binding / intracellular uptake” for short) was “only minor intracellular traces”. In the case of `CC(C)C[C@@H]1NC(=O)[C@H](CC(=O)O)NC(=O)CNC(=O)[C@H](CCCNC(=N)N)NC(=O)[C@H](Cc2ccccc2)NC(=O)[C@H](CCCCNC(=O)CCCCCNC(=O)CCCCC[N+]2=C(/C=C/C=C/C=C3/N(C)c4ccc5ccccc5c4C3(C)C)C(C)(C)c3c2ccc2ccccc32)N(C)C(=O)[C@H]2CCCN2C(=O)[C@H](Cc2ccccc2)NC(=O)[C@H](C)NC1=O` [L3-Cy5.5], the “Localization of Cy5.5-labeled ligand” value in assay [5] is on record as “already intracellularly visible”. In addition, in assay [3], the “Binding / intracellular uptake” value is listed as “did not bind”. Moreover, in [4] (setting [10]), the 50% inhibitory concentration (IC50) was greater than 1000 nM. For the molecule `CN1/C(=C/C=C/C=C/C2=[N+](CCCCCC(=O)NCCCCCC(=O)N[C@@H](CCCCNC(=O)[C@@H]3CCC(=O)N[C@@H](CCCNC(=N)N)C(=O)NCC(=O)N[C@@H](CC(=O)O)C(=O)N[C@@H](C4CCCCC4)C(=O)N3)C(N)=O)c3ccc4ccccc4c3C2(C)C)C(C)(C)c2c1ccc1ccccc21` [L4-Cy5.5], in [3], the “Binding / intracellular uptake” value is given as “did not bind”. The molecule also had a 50% inhibitory concentration (IC50) in assay [4] greater than 1000 nM.

For `Cc1cc(OCCCNC(=O)CCCCCNC(=O)CCCCC[N+]2=C(/C=C/C=C/C=C3/N(C)c4ccc5ccccc5c4C3(C)C)C(C)(C)c3c2ccc2ccccc32)cc(C)c1C(=O)N[C@@H](CNC(=O)CNC(=O)c1cccc(NC(=N)N)c1)C(=O)O` [L5-Cy5.5], the concentration for half-maximal inhibition (IC50) in assay [1] was greater than 1000 nM; in assay [2], 154 ± 136 nM; in assay [4] (setting [10]), 4.69 ± 1 nM. As to “L3-Cy5.5, the Cy5.5 conjugate of c(FRGDLAFp(NMe)K) (L3) (peptide)”, in assay [6], the half-maximal inhibitory concentration (IC50) was greater than 1000 nM. As for “L4-Cy5.5, the Cy5.5 conjugate of c(RGD-Chg-isoE)-CONH2 (L4) (peptide)”, in assay [6], the half-inhibitory concentration (IC50) was greater than 1000 nM. Consider c(RGD-Chg-isoE)-CONH2 [L4], for which the “Endocytosis of Cy5.5-conjugated ligand” value in [7] was “already completed”. Turning to cyclo(RGD[dF][NMeV]) [cilengitide, c(RGDf(NMe)V) (L2)], in assay [8], the p-FAK level by Western blot in OV-MZ-6 cells (low αvβ3, α5β1+) with 1 nM cilengitide, 5 to 60 min stood at 2.2 fold.

B1: L4-Cy5.5, the Cy5.5 conjugate of c(RGD-Chg-isoE)-CONH2 (L4) (peptide)
chain: cyclo(RGD[Chg][isoE])
modifications: not fully specified (C-terminus); printed as c(RGD-Chg-isoE)-CONH2; also: Cy5.5 attached via Ahx linker, site not given here
B1 had a 50% inhibitory concentration (IC50) in [9] of 7.63 ± 0.83 nM.
